22 compounds from patent US8119681B2, “2-[1-phenyl-5-hydroxy or methoxy-4alpha-methyl-hexahydrocyclopenta [ƒ]indazole-5-YL]ethyl phenyl derivatives as glucocorticoid receptor ligands” (Merck Sharp & Dohme Corp., priority 2006, dated 2012) can be followed below.

The target in the first experiment is T1, human GR (Homo sapiens, UniProt P04150).
T1 sequence (P04150 1-777): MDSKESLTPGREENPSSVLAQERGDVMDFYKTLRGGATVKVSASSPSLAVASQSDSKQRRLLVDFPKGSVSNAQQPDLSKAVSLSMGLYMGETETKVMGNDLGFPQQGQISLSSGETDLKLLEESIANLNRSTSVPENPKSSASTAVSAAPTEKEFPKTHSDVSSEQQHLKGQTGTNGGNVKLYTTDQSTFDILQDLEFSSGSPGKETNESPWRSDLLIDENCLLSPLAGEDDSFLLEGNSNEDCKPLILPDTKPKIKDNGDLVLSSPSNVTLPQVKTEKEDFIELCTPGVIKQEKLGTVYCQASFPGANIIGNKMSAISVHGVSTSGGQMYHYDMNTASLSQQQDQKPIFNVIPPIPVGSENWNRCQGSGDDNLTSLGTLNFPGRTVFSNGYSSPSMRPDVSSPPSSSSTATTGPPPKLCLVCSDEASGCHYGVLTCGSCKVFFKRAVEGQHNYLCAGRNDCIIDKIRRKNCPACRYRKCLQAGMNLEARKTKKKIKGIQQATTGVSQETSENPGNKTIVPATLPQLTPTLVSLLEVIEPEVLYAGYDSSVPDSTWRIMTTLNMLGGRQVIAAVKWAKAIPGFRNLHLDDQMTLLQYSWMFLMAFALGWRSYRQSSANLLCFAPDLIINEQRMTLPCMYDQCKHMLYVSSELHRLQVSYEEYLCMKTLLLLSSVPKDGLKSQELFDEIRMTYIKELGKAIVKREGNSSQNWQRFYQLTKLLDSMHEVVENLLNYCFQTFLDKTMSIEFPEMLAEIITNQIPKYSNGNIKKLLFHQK
As to the kind of experiment: Transrepression Assay (GITAR), TNFα-β-lactamase reporter gene in U937 cells. The note with it: U-937, read-out: maximal activity in the transrepression assay. It is filed as cell-based. More on the design: U937 cells contain an endogenous glucocorticoid receptor (GR); endogenous in cells; host or cells: U937 cells stably transfected with the TNF-α promoter/β-lactamase reporter only. The source says: Transrepression Assay (GITAR)
This assay assesses the ability of test compounds to control transcription from the TNFα-β-lactamase reporter gene in U937 cells, a human myelomonocytic leukemia cell line that naturally expresses the human GR. The assay measures compound dependent-repression of the TNFa promoter linked to a reporter gene.
The human U937 cells that had been stably transfected with the TNF-α promoter driving β-lactamase are used for this assay. U937 cells contain an endogenous glucocorticoid receptor (GR). […] 50,000 cells/well are plated in 96 well black-walled plates the day of assay. Test compounds are added 10 μL/well, and cells are incubated at 37° C. for 30˜45 min. For assaying compounds, first dilute 1:10 in DMSO to make 1 mM, then further dilute 1:100 in medium to make 10× stock prior to adding to the cells. Add 50 ng/ml PMA (Sigma, cat# P8139) 10 μL/well to a final concentration 5 ng/ml, and 1 μg/ml LPS (Sigma, cat# L4130) 10 μL/well to a final concentration 100 ng/ml. Incubate cells at 370 C overnight for ˜18 hr. PMA is stored frozen as 100 μg/ml stock in DMSO. Dilute 1:10 in DMSO for a working stock of 10 μg/ml and store at −20 C. For assaying, dilute the 10 μg/ml working stock 1:200 in medium to make a 10× solution (50 ng/ml). Store frozen LPS at 1 mg/ml in PBS, dilute 1:1000 in medium to make 10× (1 μg/ml) for the assay. Add 6× loading buffer (CCF2-AM) 20 μL/well, and incubate at room temperature for 70˜90 min. […] The activity repressed by 100 nM dexamethasone alone is set as 100% activity.
For orientation: A reporter such as luciferase makes a cellular process visible.
Take `CCNC(=O)Oc1ccccc1CC[C@]1(O)CCC2=Cc3c(cnn3-c3ccc(F)cc3)C[C@@]21C` [Example 18, 2-{2-[(4αS,5R)-1-(4-fluorophenyl)-5-hydroxy-4α-methyl-1,4,4α,5,6,7-hexahydrocyclopenta[f]indazol-5-yl]ethyl}phenyl ethylcarbamate]: the Emax was in the range of 5 to 100%.

Still in this experiment, the particulars now being: U-937; 100 nM dexamethasone = 100% activity; read-out: maximal activity in the transrepression assay.
With `C[C@]12Cc3cnn(-c4ccc(F)cc4)c3C=C1CC[C@@]2(O)CCc1ccccc1C(=O)O` [Example 1, 2-{2-[(4αS,5R)-1-(4-Fluorophenyl)-5-hydroxy-4α-methyl-1,4,4α,5,6,7-hexahydrocyclopenta[f]indazol-5-yl]ethyl}benzoic acid], the Emax lay in the range of 5 to 100%.

As to `C[C@]12Cc3cnn(-c4ccc(F)cc4)c3C=C1CC[C@@]2(O)CCc1ccccc1CNC(=O)C1CC1` [Example 4], the Emax lay within 5 to 100%. As for `CCOC(=O)NCc1ccccc1CC[C@]1(O)CCC2=Cc3c(cnn3-c3ccc(F)cc3)C[C@@]21C` [Example 6, Ethyl(2-(2-[(4αS,5R)-1-(4-fluorophenyl)-5-hydroxy-4α-methyl-1,4,4α,5,6,7-hexahydrocyclopenta(f)indazol-5-yl]ethyl)benzyl)carbamate], the Emax was in the range of 5 to 100%. On to `C[C@]12Cc3cnn(-c4ccc(F)cc4)c3C=C1CC[C@@]2(O)CCc1ccccc1C1(NS(=O)(=O)C2CC2)CC1` [Example 7, N-[1-(2-{2-[(4αS,5R)-1-(4-Fluorophenyl)-5-hydroxy-4α-methyl-1,4,4α,5,6,7-hexahydrocyclopenta[f]indazol-5-yl]ethyl}phenyl)cyclopropyl]cyclopropanesulfonamide], for which the Emax lay in the range of 5 to 100%. Turning to `C[C@@H](NS(=O)(=O)C1CC1)c1ccccc1CC[C@]1(O)CCC2=Cc3c(cnn3-c3ccc(F)cc3)C[C@@]21C` [Example 8, N-[(1R)-1-(2-{2-[(4αS,5R)-1-(4-Fluorophenyl)-5-hydroxy-4α-methyl-1,4,4α,5,6,7-hexahydrocyclopenta[f]indazol-5-yl]ethyl}phenyl)ethyl]cyclopropanesulfonamide], the Emax lay in the range of 5 to 100%. On the same count and under the same terms, to `CCNC(=O)OCc1ccccc1CC[C@]1(O)CCC2=Cc3c(cnn3-c3ccc(F)cc3)C[C@@]21C` [Example 9] belongs 5 to 100%; to `C[C@]12Cc3cnn(-c4ccc(F)cc4)c3C=C1CC[C@@]2(O)CCc1ccccc1-c1ccc(F)nc1` [Example 10, (4αS,5R)-1-(4-fluorophenyl)-5-{2-[2-(6-fluoropyridin-3-yl)phenyl]ethyl}-4α-methyl-1,4,4α,5,6,7-hexahydrocyclopenta[f]indazol-5-ol], 5 to 100%. For `CCOC(=O)Nc1ccccc1CC[C@]1(O)CCC2=Cc3c(cnn3-c3ccc(F)cc3)C[C@@]21C` [Example 12, ethyl (2-{2-[(4αS,5R)-1-(4-fluorophenyl)-5-hydroxy-4α-methyl-1,4,4α,5,6,7-hexahydrocyclopenta[f]indazol-5-yl]ethyl}phenyl)carbamate], the Emax lay within 5 to 100%. As for `CCNC(=O)Nc1ccccc1CC[C@]1(O)CCC2=Cc3c(cnn3-c3ccc(F)cc3)C[C@@]21C` [Example 13, N-ethyl-N′-(2-{2-[(4αS,5R)-1-(4-fluorophenyl)-5-hydroxy-4α-methyl-1,4,4α,5,6,7-hexahydrocyclopenta[f]indazol-5-yl]ethyl}phenyl)urea], the Emax lay within 5 to 100%.

As to `C[C@]12Cc3cnn(-c4ccc(F)cc4)c3C=C1CC[C@@]2(O)CCc1ccccc1O` [Example 16, (4αS,5R)-1-(4-fluorophenyl)-5-[2-(2-hydroxyphenyl)ethyl]-4α-methyl-1,4,4α,5,6,7-hexahydrocyclopenta[f]indazol-5-ol], the Emax was 5 to 100%. `CCOC(=O)Oc1ccccc1CC[C@]1(O)CCC2=Cc3c(cnn3-c3ccc(F)cc3)C[C@@]21C` [Example 17, Ethyl-(2-(2-[(4αS,5R)-1-(4-fluorophenyl)-5-hydroxy-4α-methyl-1,4,4α,5,6,7-hexahydrocyclopenta(f)indazol-5-yl]ethyl)phenyl)carbonate]: the Emax fell in the range of 5 to 100%. In the case of `C[C@]12Cc3cnn(-c4ccc(F)cc4)c3C=C1CC[C@@]2(O)CCc1ccccc1C#N` [Example 20, 2-{2-[(4αS,5R)-1-(4-fluorophenyl)-5-hydroxy-4α-methyl-1,4,4α,5,6,7-hexahydrocyclopenta[f]indazol-5-yl]ethyl}benzonitrile], the Emax lay in the range of 5 to 100%. As for `C[C@]12Cc3cnn(-c4ccc(F)cc4)c3C=C1CC[C@@]2(O)CCc1ccccc1C=O` [Example 21, 2-{2-[(4αS,5R)-1-(4-Fluorophenyl)-5-hydroxy-4α-methyl-1,4,4α,5,6,7-hexahydrocyclopenta[f]indazol-5-yl]ethyl}benzaldehyde], the Emax fell in the range of 5 to 100%. `C[C@]12Cc3cnn(-c4ccc(F)cc4)c3C=C1CC[C@@]2(O)CCc1ccccc1S(N)(=O)=O` [Example 22, 2-{2-[(4αS,5R)-1-(4-fluorophenyl)-5-hydroxy-4α-methyl-1,4,4α,5,6,7-hexahydrocyclopenta[f]indazol-5-yl]ethyl}benzenesulfonamide]: the Emax lay within 5 to 100%. For `CCOC1(OCC)CN(C(=O)c2ccccc2CC[C@]2(O)CCC3=Cc4c(cnn4-c4ccc(F)cc4)C[C@@]32C)C1` [Example 24, (4αS,5R)-5-(2-{2-[(3,3-diethoxyazetidin-1-yl)carbonyl]phenyl}ethyl)-1-(4-fluorophenyl)-4α-methyl-1,4,4α,5,6,7-hexahydrocyclopenta[f]indazol-5-ol], the Emax lay within 5 to 100%.

For the compound `CC(C)(C)CNC(=O)c1ccccc1CC[C@]1(O)CCC2=Cc3c(cnn3-c3ccc(F)cc3)C[C@@]21C` [Example 25, N-(2,2-dimethylpropyl)-2-{2-[(4αS,5R)-1-(4-fluorophenyl)-5-hydroxy-4α-methyl-1,4,4α,5,6,7-hexahydrocyclopenta[f]indazol-5-yl]ethyl}benzamide], the Emax was in the range of 5 to 100%. Same read-out and setting: next, `CCNC(=O)c1ccccc1CC[C@]1(O)CCC2=Cc3c(cnn3-c3ccccc3)C[C@@]21C` [Example 27, N-ethyl-2-{2-[(4αS,5R)-5-hydroxy-4α-methyl-1-phenyl-1,4,4α,5,6,7-hexahydrocyclopenta[f]indazol-5-yl]ethyl}benzamide]: 5 to 100%; `CCNC(=O)c1ccccc1CC[C@]1(O)CCC2=Cc3c(cnn3-c3cccc(F)c3)C[C@@]21C` [Example 36, N-ethyl-2-{2-[(4αS,5R)-1-(3-fluorophenyl)-5-hydroxy-4α-methyl-1,4,4α,5,6,7-hexahydrocyclopenta[f]indazol-5-yl]ethyl}benzamide]: 5 to 100%; `CC1(NC(=O)c2ccccc2CC[C@]2(O)CCC3=Cc4c(cnn4-c4ccc(F)c(F)c4)C[C@@]32C)CC1` [Example 39, 2-{2-[(4αS,5R)-1-(3,4-difluorophenyl)-5-hydroxy-4α-methyl-1,4,4α,5,6,7-hexahydrocyclopenta[f]indazol-5-yl]ethyl}-N-(1-methylcyclopropyl)benzamide]: 5 to 100%. `C=CCN(C)C(=O)c1ccccc1CC[C@]1(O)CCC2=Cc3c(cnn3-c3ccc(F)cc3)C[C@@]21C` [Example 50, N-allyl-2-{2-[(4αS,5R)-1-(4-fluorophenyl)-5-hydroxy-4α-methyl-1,4,4α,5,6,7-hexahydrocyclopenta[f]indazol-5-yl]ethyl}-N-methylbenzamide]: the Emax was in the range of 5 to 100%. On the same count and under the same terms, next, `C=C(F)CNC(=O)c1ccccc1CC[C@]1(O)CCC2=Cc3c(cnn3-c3ccc(F)cc3)C[C@@]21C` [Example 53, 2-{2-[(4αS,5R)-1-(4-fluorophenyl)-5-hydroxy-4α-methyl-1,4,4α,5,6,7-hexahydrocyclopenta[f]indazol-5-yl]ethyl}-N-(2-fluoroprop-2-en-1-yl)benzamide]: 5 to 100%.
